Holding throughout (assay type): cell-based
The test system of experiment [1] is SH-SY5Y (human neuroblastoma) cells. Briefly: Cell viability, Cell Titer Glo 2.0 assay. Particulars: read-out: Viability SHSY5Y.3 GI50. An outline of the steps: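 CellTiter-Glo 2.0 luminescence read-out after 72 h compound exposure (37 °C, 5% CO2); medium-only wells as blank. DMSO 0.1% final.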
In general terms: ATP-based viability assays read luminescence as a measure of living cells.

Experiment [2] relates to MYB mRNA. Briefly: Splicing RT-qPCR assay (THP), Table 2A. The following applies: Table 2A, THP; for AC50: MYB alternative junction (AJ) mRNA, read-out: MYB AJ (AC50, increase in alternative junction mRNA); for IC50: MYB canonical junction (CJ) mRNA, read-out: MYB CJ (IC50, decrease in canonical junction mRNA).
In experiment [3] the test system is MYB mRNA. Briefly: Gene panel canonical junction qPCR assay, decrease in CJ mRNA, Table 3. Particulars: decrease in CJ mRNA levels, canonical junction qPCR, gene panel. An outline of the steps:
(§1)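 Cells: A673 or K562; 24 h compound exposure, 37 °C, 5% CO2; 11-pt 3-fold series from 10 uM final; DMSO ≤0.25%. Lysate → cDNA → qPCR with junction-spanning primers/probe for CJ transcript. ΔCt vs housekeeper, ΔΔCt vs DMSO, 2^(−ΔΔCt), % response, 4PL → IC50.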
On the technique in general: Real-time PCR tracks product formation cycle by cycle.

Experiment [4] relates to HTT mRNA. The description is as above. The following applies: decrease in CJ mRNA levels, canonical junction qPCR, gene panel. An outline of the steps:
as §1

The test system of experiment [5] is HTT mRNA. Kind of experiment: Splicing RT-qPCR assay (THP), Table 2A. The following applies: Table 2A, THP; for AC50: HTT alternative junction (AJ) mRNA, read-out: HTT AJ (AC50, increase in alternative junction mRNA); for IC50: HTT canonical junction (CJ) mRNA, read-out: HTT CJ (IC50, decrease in canonical junction mRNA).

On to `Cc1cn2cc(NC(=O)c3ccc(N4CCC(NC5CC5)CC4)c4cn(C)nc34)nc2c(CN)n1` [Compound 734, N-(8-(aminomethyl)-6-methylimidazo[1,2-a]pyrazin-2-yl)-4-(4-(cyclopropylamino)piperidin-1-yl)-2-methyl-2H-indazole-7-carboxamide bis(2,2,2-trifluoroacetate)], for which, in experiment [1], the GI50 is greater than 10000 nM. Further, the AC50 with MYB mRNA [2] and with HTT mRNA [5] was greater than 10000 nM each time. Besides, the concentration for half-maximal inhibition (IC50) with MYB mRNA [2], in the experiment with MYB mRNA [3], with HTT mRNA [4] and in the experiment with HTT mRNA [5] was greater than 10000 nM each time.
Consider `Cn1cc2cc(NC(=O)c3ccc(N4CCC(NC5CC5)CC4)c4cn(C)nc34)cc(CNS(C)(=O)=O)c2n1` [Compound 735, 4-(4-(cyclopropylamino)piperidin-1-yl)-2-methyl-N-(2-methyl-7-(methylsulfonamidomethyl)-2H-indazol-5-yl)-2H-indazole-7-carboxamide 2,2,2-trifluoroacetate], for which the 50% growth inhibitory concentration (GI50) in experiment [1] is greater than 10000 nM. The AC50 in the experiment on MYB mRNA [2] is 1000 to 10000 nM; in the experiment with HTT mRNA [5], greater than 10000 nM. The IC50 in the experiment with MYB mRNA [2] is 1000 to 10000 nM; in the experiment on MYB mRNA [3] it was 1000 to 10000 nM; with HTT mRNA [4] it was greater than 10000 nM; in the experiment on HTT mRNA [5], greater than 10000 nM.
Regarding `CCNC1CCN(c2ccc(C(=O)Nc3cc4cn(C)nc4cc3OC)c3nn(C)cc23)C(C)C1` (stereo not shown) [Compound 736, 4-(4-(ethylamino)-2-methylpiperidin-1-yl)-N-(6-methoxy-2-methyl-2H-indazol-5-yl)-2-methyl-2H-indazole-7-carboxamide 2,2,2-trifluoroacetate], in experiment [1], the GI50 fell in the range of 1000 to 10000 nM. For the same compound, the figures for the AC50 in the experiment on MYB mRNA [2] and with HTT mRNA [5] were 1000 to 10000 nM and greater than 10000 nM, respectively. Besides, the half-maximal inhibitory concentration (IC50) in the experiment with MYB mRNA [2], in the experiment on MYB mRNA [3], in the experiment with HTT mRNA [4] and with HTT mRNA [5] was greater than 10000 nM throughout.
As for `CCNC1CCN(c2ccc(C(=O)Nc3cc4cn(C)nc4cc3OC)c3nn(C)cc23)C(C)(C)C1` (stereo not shown) [Compound 737, 4-[4-(ethylamino)-2,2-dimethyl-1-piperidyl]-N-(6-methoxy-2-methyl-indazol-5-yl)-2-methyl-indazole-7-carboxamide], the GI50 in experiment [1] lay within 1000 to 10000 nM. Besides, the AC50 in the experiment on MYB mRNA [2] and with HTT mRNA [5] was greater than 10000 nM in each case. The IC50 in the experiment on MYB mRNA [2], in the experiment on MYB mRNA [3], in the experiment with HTT mRNA [4] and in the experiment on HTT mRNA [5] was greater than 10000 nM in each case.
Regarding `COc1nc2c(C(=O)Nc3cc(C)c4nn(C)cc4n3)ccc(N3C[C@H](C)N[C@@H](C)C3)c2s1` [Compound 738, N-(2,7-dimethyl-2H-pyrazolo[4,3-b]pyridin-5-yl)-7-((3S,5S)-3,5-dimethylpiperazin-1-yl)-2-methoxybenzo[d]thiazole-4-carboxamide 2,2,2-trifluoroacetate], in experiment [1], the concentration for 50% growth inhibition (GI50) lay in the range of 100 to 1000 nM. Besides, the AC50 was less than 100 nM in the experiment with MYB mRNA [2] and greater than 10000 nM in the experiment on HTT mRNA [5]. The IC50 was less than 100 nM in the experiment on MYB mRNA [2], less than 100 nM in the experiment on MYB mRNA [3], greater than 10000 nM with HTT mRNA [4] and greater than 10000 nM in the experiment on HTT mRNA [5].
Turning to `COc1nc2c(C(=O)Nc3cc(C)c4nc(C)cn4n3)ccc(N3C[C@H](C)N[C@@H](C)C3)c2s1` [Compound 739, N-(2,8-dimethylimidazo[1,2-b]pyridazin-6-yl)-7-[(3S,5S)-3,5-dimethylpiperazin-1-yl]-2-methoxy-1,3-benzothiazole-4-carboxamide], the GI50 in experiment [1] fell in the range of 100 to 1000 nM. The concentration at half-maximal activity (AC50) in the experiment on MYB mRNA [2] was less than 100 nM; with HTT mRNA [5] it was 100 to 1000 nM. Besides, the IC50 in the experiment with MYB mRNA [2] is less than 100 nM; in the experiment with MYB mRNA [3], less than 100 nM; in the experiment on HTT mRNA [4], 1000 to 10000 nM; with HTT mRNA [5] it was 1000 to 10000 nM.
As to `COc1nc2c(C(=O)Nc3cccc4c3nnn4C)ccc(N3C[C@H](C)N[C@@H](C)C3)c2s1` [Compound 740, 7-[(3S,5S)-3,5-dimethylpiperazin-1-yl]-2-methoxy-N-(1-methylbenzotriazol-4-yl)-1,3-benzothiazole-4-carboxamide], the concentration for 50% growth inhibition (GI50) in experiment [1] fell in the range of 1000 to 10000 nM. Also, the AC50 in the experiment on MYB mRNA [2] and in the experiment on HTT mRNA [5] was greater than 10000 nM in each case. The 50% inhibitory concentration (IC50) in the experiment on MYB mRNA [2] is greater than 10000 nM; in the experiment on MYB mRNA [3], greater than 10000 nM; in the experiment with HTT mRNA [4], 1000 to 10000 nM; in the experiment with HTT mRNA [5], 1000 to 10000 nM.
As to `COc1nc2c(C(=O)Nc3cc(F)c4nn(C)cc4c3)ccc(N3C[C@H](C)NC4(CC4)C3)c2s1` [Compound 741], the GI50 in experiment [1] is less than 100 nM. The results for the half-maximal activity concentration (AC50) with MYB mRNA [2] and in the experiment with HTT mRNA [5] were less than 100 nM and 1000 to 10000 nM, respectively. Further, the 50% inhibitory concentration (IC50) in the experiment on MYB mRNA [2] is less than 100 nM; with MYB mRNA [3], less than 100 nM; with HTT mRNA [4] it was greater than 10000 nM; in the experiment with HTT mRNA [5] it was greater than 10000 nM.
Turning to `COc1nc2c(C(=O)Nc3cc(F)c4nn(C)cc4c3)ccc(N3CCN[C@@H](C(C)(C)C)C3)c2s1` [Compound 742, 7-[(3S)-3-tert-butylpiperazin-1-yl]-N-(7-fluoro-2-methyl-indazol-5-yl)-2-methoxy-1,3-benzothiazole-4-carboxamide], the GI50 in experiment [1] lay in the range of 1000 to 10000 nM. Besides, the AC50 in the experiment with MYB mRNA [2] was 100 to 1000 nM; with HTT mRNA [5] it was greater than 10000 nM. Also, the 50% inhibitory concentration (IC50) with MYB mRNA [2] is 100 to 1000 nM; in the experiment with MYB mRNA [3], 100 to 1000 nM; in the experiment on HTT mRNA [4], greater than 10000 nM; in the experiment on HTT mRNA [5] it was greater than 10000 nM.
As for `COc1nc2c(C(=O)Nc3cc(F)c4nn(C)cc4c3)ccc(N3CCN[C@@H](CO)C3)c2s1` [Compound 743, (R)—N-(7-fluoro-2-methyl-2H-indazol-5-yl)-7-(3-(hydroxymethyl)piperazin-1-yl)-2-methoxybenzo[d]thiazole-4-carboxamide 2,2,2-trifluoroacetate], the GI50 in experiment [1] was less than 100 nM. Also, the half-maximal activity concentration (AC50) with MYB mRNA [2] and with HTT mRNA [5] was less than 100 nM in each case. Further, the 50% inhibitory concentration (IC50) in the experiment on MYB mRNA [2], in the experiment with MYB mRNA [3], in the experiment with HTT mRNA [4] and in the experiment on HTT mRNA [5] was less than 100 nM in each case.
Turning to `COc1nc2c(C(=O)Nc3cc(F)c4nn(C)cc4c3)ccc(N3C[C@@H](C)N(C)[C@@H](C)C3)c2s1` [Compound 744, N-(7-fluoro-2-methyl-indazol-5-yl)-2-methoxy-7-[(3R,5S)-3,4,5-trimethylpiperazin-1-yl]-1,3-benzothiazole-4-carboxamide], the GI50 in experiment [1] is 100 to 1000 nM. Moreover, the half-maximal activity concentration (AC50) in the experiment on MYB mRNA [2] was less than 100 nM; in the experiment on HTT mRNA [5], 100 to 1000 nM. Further, the half-maximal inhibitory concentration (IC50) was less than 100 nM with MYB mRNA [2], less than 100 nM with MYB mRNA [3], 1000 to 10000 nM in the experiment with HTT mRNA [4] and 1000 to 10000 nM in the experiment with HTT mRNA [5].
On to `COc1nc2c(C(=O)Nc3cc(F)c4nn(C)cc4c3)ccc(N3CCN4CCC[C@H]4C3)c2s1` [Compound 745, 7-[(8aS)-3,4,6,7,8,8a-hexahydro-1H-pyrrolo[1,2-a]pyrazin-2-yl]-N-(7-fluoro-2-methyl-indazol-5-yl)-2-methoxy-1,3-benzothiazole-4-carboxamide], for which the concentration for 50% growth inhibition (GI50) in experiment [1] is 100 to 1000 nM. Also, the figures for the AC50 in the experiment on MYB mRNA [2] and in the experiment on HTT mRNA [5] were less than 100 nM and 100 to 1000 nM, respectively. For the same compound, the half-inhibitory concentration (IC50) was less than 100 nM in the experiment with MYB mRNA [2], less than 100 nM in the experiment on MYB mRNA [3], 100 to 1000 nM with HTT mRNA [4] and 100 to 1000 nM in the experiment with HTT mRNA [5].
On to `COc1nc2c(C(=O)Nc3cc(F)c4nn(C)cc4c3)ccc(N3CCN4CCCC[C@H]4C3)c2s1` [Compound 746], for which the GI50 in experiment [1] lay within 100 to 1000 nM. Further, the concentration at half-maximal activity (AC50) with MYB mRNA [2] was less than 100 nM; with HTT mRNA [5], 100 to 1000 nM. Moreover, the 50% inhibitory concentration (IC50) in the experiment on MYB mRNA [2], with MYB mRNA [3], with HTT mRNA [4] and with HTT mRNA [5] was 100 to 1000 nM in each case.

By GI50 is commonly meant the concentration at which growth is held to half of that of the control. As usually defined, the AC50 is the midpoint of the concentration-response curve, whichever way the signal moves. As usually defined, the IC50 is the concentration that gives 50% inhibition.

The record behind these values is US20260285853A1, “COMPOUNDS AND METHODS FOR MODULATING SPLICING” (REMIX THERAPEUTICS INC., priority 2023, published 2026).
